Measurements reported in patent US9901592B2 (priority 2008, dated 2018).
Values after ≈ are worked out from the molar mass of the structure shown. Read-outs that look alike come from different tables or passages of the source.

Key:
M. catarrhalis = test: microbe, parasite or virus in culture; assay type: cell-based; settings: Moraxella catarrhalis
[1] = system: intraphagocytic L. pneumophila ATCC 33153 (THP-1); assay type: cell-based; settings: intracellular L. pneumophila ATCC 33153
S. pneumoniae [2] = test: mouse systemic infection model (PD50); assay type: in vivo
S. pyogenes ATCC 8668 = test: mouse subcutaneous abscess model; assay type: in vivo; settings: 48 hr. post infection
Method: Example. Mouse Subcutaneous Abscess. Bacteria were prepared from an overnight plate culture by re-suspending in saline and adjusting the suspension to a 0.1 OD at 625 nm of a 1:10 dilution. The adjusted bacterial suspension was mixed 1:2 with cyclodextran beads prepared as per package instructions. The right flanks of the mice were shaven and injected subcutaneously with 0.2 ml of the bacterial inoculum. Two hours post infection mice were treated via oral gavage with either test article or control drug. 48 hours post infection, mice were euthanized, abscesses aseptically removed, homogenized, serially diluted and plated on bacterial growth agar. After overnight incubation, colonies were counted and CFUs/gram of abscess were determined.
Example. Mouse Subcutaneous Abscess˜S. pyogenes ATCC 8668 (Average Log10 CFU/gram of Abscess). Abscess processing 48 hours post infection.

S. pyogenes [3] = test: mouse systemic infection model (PD50); assay type: in vivo
pneumococci = test: microbe, parasite or virus in culture; assay type: cell-based, S. pneumoniae; settings: Streptococcus pneumoniae
S. pneumoniae [4] = test: neutropenic mouse thigh infection; assay type: in vivo; settings: PO
Method: Example. Neutropenic Mouse Thigh Infection. Mice were rendered neutropenic with IP injections of cyclophosamide at day −4 and day −1 of 150 mg/Kg and 100 mg/Kg, respectively. On day 0 mice were infected with approximately 5×10^5 CFU/ml of bacteria in a 0.1 ml volume into the right thigh. At 1.5 hours post infection mice received treatment via oral gavage. One group of infected mice were euthanized and thigh processed for bacterial titers to serve as T=0 controls. Twenty-four hours post treatment, the remaining mice were euthanized, thighs aseptically removed, weighed, homogenized, serially diluted and plated on bacterial growth media. CFUs per gram of thigh were calculated after overnight incubation of bacterial plates. The amount of test article required to achieve 1, 2, and 3 loge reductions from 24 hour control thighs were calculated. Additional studies were performed that fractionated the single treatment dose (Q24) into two (Q12), three (Q8) and four (Q6) equivalent doses to determine the pharmacodynamic nature of this compound. Further analysis includes static dose, EC50, 1 log kill and maximal effect (Emax).

S. pyogenes [5] = test: microbe, parasite or virus in culture; assay type: cell-based; settings: for MIC: Streptococcus pyogenes
streptococci = test: organism not typed; assay type: cell-based

CC[C@H]1OC(=O)[C@H](C)[C@@H](O[C@H]2C[C@@](C)(OC)[C@@H](O)[C@H](C)O2)[C@H](C)[C@@H](O[C@@H]2O[C@H](C)C[C@H](N(C)C)[C@H]2O)[C@](C)(OC)C[C@@H](C)C(=O)[C@H](C)[C@@H](O)[C@]1(C)O [CLR, clarithromycin]
MIC90 (M. catarrhalis): 0.12 µg/mL (≈ 0.16 µM) | Cs, static concentration [1]: 0.12 mg/L | PD50 (S. pneumoniae [2]; S. pneumoniae (macrolide susceptible)): 32.1 mg/kg | PD50 (S. pneumoniae [2]; S. pneumoniae (mefR)): >30 mg/kg | PD50 (S. pneumoniae [2]; S. pneumoniae serotype 19A): 5.03 mg/kg | Average Log10 CFU/gram of Abscess (S. pyogenes ATCC 8668; 10 mg/Kg): 7.63 Log10 CFU/gram | Average Log10 CFU/gram of Abscess (S. pyogenes ATCC 8668; 20 mg/Kg): 7.82 Log10 CFU/gram | PD50 (S. pyogenes [3]; S. pyogenes (erythromycin R)): 22.8 mg/kg | PD50 (S. pyogenes [3]; S. pyogenes (macrolide susceptible)): 24.8 mg/kg | MIC50 (pneumococci; pneumococci, L4 mutations (27)): 16 µg/mL (≈ 21.4 µM) | MIC90 (pneumococci; pneumococci, L4 mutations (27)): 32 µg/mL (≈ 42.8 µM) | MIC (pneumococci; read-out: MIC range, pneumococci, L4 mutations (27)): 1 to 32 µg/mL (≈ 1.34 to 42.8 µM) | Max. change in log10CFUs from 24 hr. controls (S. pneumoniae [4]; S. pneumoniae 1629): −5.75 log10CFUs | Dose for 2 log10 Reduction from 24 hour controls (S. pneumoniae [4]; S. pneumoniae 1629, QD): 9.0 mg/Kg | Max. change in log10CFUs from 24 hr. controls (S. pneumoniae [4]; S. pneumoniae 6303): −5.20 log10CFUs | strains with resistant clones / strains tested (S. pyogenes [5]; S. pyogenes): 1/4 | MIC (S. pyogenes [5]; read-out: Initial MIC, strain 237 Macrolide-R [LA mutation], parent): 0.25 µg/mL (≈ 0.334 µM) | MIC (S. pyogenes [5]; read-out: Initial MIC, strain 2011 Macrolide-R [mef(A)], parent): 4 µg/mL (≈ 5.35 µM) | MIC (S. pyogenes [5]; read-out: Initial MIC, strain 2094 Macrolide-R [erm(A)], parent): 0.5 µg/mL (≈ 0.668 µM) | MIC (S. pyogenes [5]; read-out: Initial MIC, strain 2132 Macrolide-S, parent): 0.03 µg/mL (≈ 0.0401 µM) | MIC (S. pyogenes [5]; read-out: Initial MIC, strain 2368 Macrolide-R [erm(B)], parent): > 64 µg/mL | MIC (S. pyogenes [5]; read-out: MIC of parent of resistant clone, S. pyogenes): 500 µg/mL | MIC (S. pyogenes [5]; read-out: MIC of parents of resistant clones, S. pyogenes): 0.5 µg/mL | MIC (S. pyogenes [5]; read-out: MIC of resistant clones, S. pyogenes): > 64 µg/mL | MIC (S. pyogenes [5]; read-out: Parental MICs, S. pyogenes, 5 strains with varying resistotypes): 0.03 to 4 µg/mL (≈ 0.0401 to 5.35 µM) | MIC (S. pyogenes [5]; read-out: Selected Resistance (MIC), strain 237 Macrolide-R [LA mutation], after serial passages in the drug): 1 µg/mL (≈ 1.34 µM) | MIC (S. pyogenes [5]; read-out: Selected Resistance (MIC), strain 2011 Macrolide-R [mef(A)], after serial passages in the drug): 8 µg/mL (≈ 10.7 µM) | MIC (S. pyogenes [5]; read-out: Selected Resistance (MIC), strain 2094 Macrolide-R [erm(A)], after serial passages in the drug): > 64 µg/mL | MIC (S. pyogenes [5]; read-out: Selected Resistance (MIC), strain 2132 Macrolide-S, after serial passages in the drug): 0.016 µg/mL (≈ 0.0214 µM) | days until resistant clones (MIC increase) (S. pyogenes [5]; daily passages, max. 50): 6 days | Retest MIC after 10 Antibioticfree Subcultures (S. pyogenes [5]; strain 237 Macrolide-R [LA mutation], clone selected with CEM-101): 1 µg/mL | Retest MIC after 10 Antibioticfree Subcultures (S. pyogenes [5]; strain 237 Macrolide-R [LA mutation], clone selected with CLN): 0.5 µg/mL | Retest MIC after 10 Antibioticfree Subcultures (S. pyogenes [5]; strain 2011 Macrolide-R [mef(A)], clone selected with AZI): 4 µg/mL | Retest MIC after 10 Antibioticfree Subcultures (S. pyogenes [5]; strain 2094 Macrolide-R [erm(A)], clone selected with AZI): 1 µg/mL | Retest MIC after 10 Antibioticfree Subcultures (S. pyogenes [5]; strain 2094 Macrolide-R [erm(A)], clone selected with CEM-101): 8 µg/mL | Retest MIC after 10 Antibioticfree Subcultures (S. pyogenes [5]; strain 2094 Macrolide-R [erm(A)], clone selected with CLN): 1 µg/mL | Retest MIC after 10 Antibioticfree Subcultures (S. pyogenes [5]; strain 2094 Macrolide-R [erm(A)], clone selected with CLR): >64 µg/mL | Retest MIC after 10 Antibioticfree Subcultures (S. pyogenes [5]; strain 2094 Macrolide-R [erm(A)], clone selected with TEL): 8 µg/mL | Retest MIC after 10 Antibioticfree Subcultures (S. pyogenes [5]; strain 2132 Macrolide-S, clone selected with AZI): 0.25b μg/ml | Retest MIC after 10 Antibioticfree Subcultures (S. pyogenes [5]; strain 2368 Macrolide-R [erm(B)], clone selected with CEM-101): >64 µg/mL | Retest MIC after 10 Antibioticfree Subcultures (S. pyogenes [5]; strain 2368 Macrolide-R [erm(B)], clone selected with TEL): >64 µg/mL | MIC50 (streptococci): 0.03 µg/mL (≈ 0.0401 µM) | MIC90 (streptococci): 0.03 µg/mL (≈ 0.0401 µM)
